# From PubChem BioAssay AID1259407 (Chemical Carcinogenesis Research Information System (CCRIS), 2018)
# Active and inactive are the calls of the source. No rule for the calls is given here.
# System: CCRIS mutagenicity, Ames/micronucleus/aberration tests
# Assay: CCRIS mutagenicity studies
# [1] = Test System: AMES SALMONELLA TYPHIMURIUM, Strain/Indicator: TA98, Metabolic Activation: NONE, Method: STANDARD PLATE
# [2] = Test System: AMES SALMONELLA TYPHIMURIUM, Strain/Indicator: TA100, Metabolic Activation: NONE, Method: STANDARD PLATE
# [3] = Test System: AMES SALMONELLA TYPHIMURIUM, Strain/Indicator: TA98, Metabolic Activation: RAT, LIVER, S-9, AROCLOR 1254, Method: STANDARD PLATE
# [4] = Test System: AMES SALMONELLA TYPHIMURIUM, Strain/Indicator: TA100, Metabolic Activation: RAT, LIVER, S-9, AROCLOR 1254, Method: STANDARD PLATE
compound,measurement,setting,value
Nc1c(Oc2ccccc2)cc(O)c2c1C(=O)c1ccccc1C2=O,mutagenic call,"Test System: AMES SALMONELLA TYPHIMURIUM, Strain/Indicator: TA98, Metabolic Activation: HAMSTER, LIVER, S-9, AROCLOR 1254 (10%), Method: STANDARD PLATE",active; positive
same,mutagenic call,[1],active; positive
same,mutagenic call,"Test System: AMES SALMONELLA TYPHIMURIUM, Strain/Indicator: TA98, Metabolic Activation: RAT, LIVER, S-9, AROCLOR 1254 (10%), Method: STANDARD PLATE",active; positive
same,mutagenic call,"Test System: AMES SALMONELLA TYPHIMURIUM, Strain/Indicator: TA100, Metabolic Activation: HAMSTER, LIVER, S-9, AROCLOR 1254 (10%), Method: STANDARD PLATE",inactive; negative
same,mutagenic call,[2],inactive; negative
same,mutagenic call,"Test System: AMES SALMONELLA TYPHIMURIUM, Strain/Indicator: TA100, Metabolic Activation: RAT, LIVER, S-9, AROCLOR 1254 (10%), Method: STANDARD PLATE",inactive; negative
same,mutagenic call,"Test System: MOUSE LYMPHOMA, Strain/Indicator: L5178Y (TK+/TK-), Metabolic Activation: RAT, LIVER, S-9, AROCLOR 1254, Method: SUSPENSION/PLATE",inactive; negative. reevaluation of results: negative
CC(=O)Nc1ccc(-c2ccc(N)cc2)cc1,mutagenic call,"Test System: AMES SALMONELLA TYPHIMURIUM, Strain/Indicator: TA1538, Metabolic Activation: GUINEA PIG, LIVER, HEPATOCYTES, Method: PREINCUBATION",active; positive
same,mutagenic call,"Test System: AMES SALMONELLA TYPHIMURIUM, Strain/Indicator: TA1538, Metabolic Activation: GUINEA PIG, LIVER, S-9, ACETYL-COA (0.1 OR 1 MILLIMOLAR), Method: PREINCUBATION",active; positive
same,mutagenic call,"Test System: AMES SALMONELLA TYPHIMURIUM, Strain/Indicator: TA1538, Metabolic Activation: GUINEA PIG, LIVER, S-9, Method: PREINCUBATION",active; positive
same,mutagenic call,"Test System: AMES SALMONELLA TYPHIMURIUM, Strain/Indicator: TA1538, Metabolic Activation: HAMSTER, LIVER, HEPATOCYTES, Method: PREINCUBATION",active; positive
same,mutagenic call,"Test System: AMES SALMONELLA TYPHIMURIUM, Strain/Indicator: TA1538, Metabolic Activation: HAMSTER, LIVER, S-9, ACETYL-COA (0.1 OR 1 MILLIMOLAR), Method: PREINCUBATION",active; positive
same,mutagenic call,"Test System: AMES SALMONELLA TYPHIMURIUM, Strain/Indicator: TA1538, Metabolic Activation: HAMSTER, LIVER, S-9, Method: PREINCUBATION",active; positive
same,mutagenic call,"Test System: AMES SALMONELLA TYPHIMURIUM, Strain/Indicator: TA1538, Metabolic Activation: RAT, LIVER, HEPATOCYTES, Method: PREINCUBATION",active; positive
same,mutagenic call,"Test System: AMES SALMONELLA TYPHIMURIUM, Strain/Indicator: TA1538, Metabolic Activation: RAT, LIVER, S-9, ACETYL-COA (0.1 OR 1 MILLIMOLAR), Method: PREINCUBATION",active; positive
same,mutagenic call,"Test System: AMES SALMONELLA TYPHIMURIUM, Strain/Indicator: TA1538, Metabolic Activation: RAT, LIVER, S-9, Method: PREINCUBATION",active; positive
same,mutagenic call,"Test System: Ames Salmonella typhimurium, Strain/Indicator: TA102, Metabolic Activation: None, Method: Preincubation",inactive; negative
same,mutagenic call,"Test System: Ames Salmonella typhimurium, Strain/Indicator: TA102, Metabolic Activation: Rat, liver, S-9, Aroclor 1254, 4%, Method: Preincubation",active; positive
Oc1ccc2c(c1)[nH]c1ccccc12,mutagenic call,"Test System: CHINESE HAMSTER OVARY, Strain/Indicator: CHO-K1-BH4 (HGPRT)/6-THIOGUANINE, Metabolic Activation: RAT, LIVER, S-9, AROCLOR (4%)",active; positive
Cn1cnc2c(NO)ncnc21,mutagenic call,"Test System: AMES SALMONELLA TYPHIMURIUM, Strain/Indicator: TA97, Metabolic Activation: NONE, Method: STANDARD PLATE",inactive; negative
same,mutagenic call,"Test System: AMES SALMONELLA TYPHIMURIUM, Strain/Indicator: TA97, Metabolic Activation: RAT, LIVER, S-9, AROCLOR 1254, Method: STANDARD PLATE",inactive; negative
same,mutagenic call,[1],inactive; negative
same,mutagenic call,[3],active; positive
same,mutagenic call,[2],inactive; negative
same,mutagenic call,[4],inactive; negative
C[C@]12CC[C@H]3C(=CCc4cc(O)ccc43)[C@@H]1CCC2=O,mutagenic call,"Test System: UDS RAT HEPATOCYTES, Strain/Indicator: THY INCORP (18-20 HR), Metabolic Activation: NONE, Method: LIQUID SCINTILLATION COUNTING",inactive; negative
CCC12OC1(C(=O)OC)C(=O)NC2(C)O (stereo not drawn),mutagenic call,"Test System: AMES SALMONELLA TYPHIMURIUM, Strain/Indicator: TA98, Metabolic Activation: NONE, Method: DISK ASSAY",inactive; negative
same,mutagenic call,[1],inactive; negative
same,mutagenic call,"Test System: AMES SALMONELLA TYPHIMURIUM, Strain/Indicator: TA98, Metabolic Activation: RAT, LIVER, S-9, AROCLOR 1254, Method: DISK ASSAY",inactive; negative
same,mutagenic call,[3],active; positive
Cc1cc(N)c(C)c2c1[nH]c1ccccc12,mutagenic call,[1],inactive; negative
same,mutagenic call,"Test System: AMES SALMONELLA TYPHIMURIUM, Strain/Indicator: TA98, Metabolic Activation: RAT LIVER S-9, AROCLOR 1254, Method: STANDARD PLATE",active; positive
same,mutagenic call,[2],inactive; negative
same,mutagenic call,"Test System: AMES SALMONELLA TYPHIMURIUM, Strain/Indicator: TA100, Metabolic Activation: RAT LIVER S-9, AROCLOR 1254, Method: STANDARD PLATE",inactive; negative
O=C1Nc2cc3ccccc3c3c4c(cc1c23)OCO4,mutagenic call,[2],inactive; negative
same,mutagenic call,[4],active; positive
same,mutagenic call,"Test System: AMES SALMONELLA TYPHIMURIUM, Strain/Indicator: TA1537, Metabolic Activation: NONE, Method: STANDARD PLATE",inactive; negative
same,mutagenic call,"Test System: AMES SALMONELLA TYPHIMURIUM, Strain/Indicator: TA1537, Metabolic Activation: RAT, LIVER, S-9, AROCLOR 1254, Method: STANDARD PLATE",active; positive
